Results reported in ChEMBL document CHEMBL4507291 (2021).

Key:
[1] = target: T1, Muscarinic acetylcholine receptor M4 (Homo sapiens) (UniProt P08173); settings: Compound concentration 10.0 uM
T1 sequence (whole entry): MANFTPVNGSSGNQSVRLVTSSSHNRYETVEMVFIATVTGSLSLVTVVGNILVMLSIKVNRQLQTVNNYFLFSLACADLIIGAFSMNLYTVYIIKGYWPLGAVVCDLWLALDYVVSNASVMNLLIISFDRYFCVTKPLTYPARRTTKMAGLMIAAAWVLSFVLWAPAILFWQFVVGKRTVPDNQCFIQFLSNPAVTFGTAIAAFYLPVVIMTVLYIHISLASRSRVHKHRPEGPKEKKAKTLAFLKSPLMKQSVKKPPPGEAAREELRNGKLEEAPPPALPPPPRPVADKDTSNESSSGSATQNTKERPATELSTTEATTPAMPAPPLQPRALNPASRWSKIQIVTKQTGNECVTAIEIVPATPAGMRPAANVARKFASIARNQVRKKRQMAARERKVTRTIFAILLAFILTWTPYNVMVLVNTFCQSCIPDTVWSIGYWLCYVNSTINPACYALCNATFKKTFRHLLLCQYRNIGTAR

[2] = target: Homeodomain-interacting protein kinase 2 (Homo sapiens) (UniProt Q9H2X6)
[3] = tested on: Epidermal growth factor receptor (Homo sapiens), P00533 [UNDEFINED MUTATION]
Sequence of Epidermal growth factor receptor (Homo sapiens), P00533 [UNDEFINED MUTATION] (P00533 whole entry, looked up, change not shown): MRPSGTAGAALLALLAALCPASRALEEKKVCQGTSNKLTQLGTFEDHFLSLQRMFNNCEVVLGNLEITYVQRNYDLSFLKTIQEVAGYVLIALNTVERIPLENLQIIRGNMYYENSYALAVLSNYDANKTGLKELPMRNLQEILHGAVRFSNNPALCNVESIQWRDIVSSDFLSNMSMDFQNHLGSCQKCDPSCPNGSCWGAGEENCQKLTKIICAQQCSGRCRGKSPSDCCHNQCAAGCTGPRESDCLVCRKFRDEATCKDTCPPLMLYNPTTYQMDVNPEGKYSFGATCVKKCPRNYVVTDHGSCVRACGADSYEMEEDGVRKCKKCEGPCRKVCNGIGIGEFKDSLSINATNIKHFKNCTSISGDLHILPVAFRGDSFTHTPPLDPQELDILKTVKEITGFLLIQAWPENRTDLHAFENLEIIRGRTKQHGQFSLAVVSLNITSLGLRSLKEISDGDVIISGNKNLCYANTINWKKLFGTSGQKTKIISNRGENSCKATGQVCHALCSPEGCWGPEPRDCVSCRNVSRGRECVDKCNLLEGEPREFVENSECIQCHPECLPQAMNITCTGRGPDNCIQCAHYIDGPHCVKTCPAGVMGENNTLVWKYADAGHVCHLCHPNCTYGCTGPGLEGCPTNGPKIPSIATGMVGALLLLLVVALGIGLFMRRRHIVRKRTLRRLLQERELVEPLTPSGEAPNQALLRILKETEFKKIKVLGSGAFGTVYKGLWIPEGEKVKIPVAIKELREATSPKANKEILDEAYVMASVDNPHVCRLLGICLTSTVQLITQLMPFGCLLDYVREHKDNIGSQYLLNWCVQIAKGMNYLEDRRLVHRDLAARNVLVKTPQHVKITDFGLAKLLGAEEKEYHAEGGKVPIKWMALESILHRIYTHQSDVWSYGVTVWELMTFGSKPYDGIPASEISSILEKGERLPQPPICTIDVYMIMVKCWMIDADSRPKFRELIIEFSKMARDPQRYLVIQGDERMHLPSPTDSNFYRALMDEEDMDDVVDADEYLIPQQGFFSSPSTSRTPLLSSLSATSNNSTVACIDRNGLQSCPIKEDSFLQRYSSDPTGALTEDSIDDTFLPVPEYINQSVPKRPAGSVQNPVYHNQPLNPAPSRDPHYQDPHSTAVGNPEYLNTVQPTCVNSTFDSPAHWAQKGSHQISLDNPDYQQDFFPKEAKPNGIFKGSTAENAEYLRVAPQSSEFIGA

[4] = target: Rho-associated protein kinase 1 (Homo sapiens) (UniProt Q13464)
[5] = target: Wee1-like protein kinase (Homo sapiens) (UniProt P30291)
[6] = target: T2, Protein kinase C iota type (Homo sapiens) (UniProt P41743)
T2 sequence (whole entry): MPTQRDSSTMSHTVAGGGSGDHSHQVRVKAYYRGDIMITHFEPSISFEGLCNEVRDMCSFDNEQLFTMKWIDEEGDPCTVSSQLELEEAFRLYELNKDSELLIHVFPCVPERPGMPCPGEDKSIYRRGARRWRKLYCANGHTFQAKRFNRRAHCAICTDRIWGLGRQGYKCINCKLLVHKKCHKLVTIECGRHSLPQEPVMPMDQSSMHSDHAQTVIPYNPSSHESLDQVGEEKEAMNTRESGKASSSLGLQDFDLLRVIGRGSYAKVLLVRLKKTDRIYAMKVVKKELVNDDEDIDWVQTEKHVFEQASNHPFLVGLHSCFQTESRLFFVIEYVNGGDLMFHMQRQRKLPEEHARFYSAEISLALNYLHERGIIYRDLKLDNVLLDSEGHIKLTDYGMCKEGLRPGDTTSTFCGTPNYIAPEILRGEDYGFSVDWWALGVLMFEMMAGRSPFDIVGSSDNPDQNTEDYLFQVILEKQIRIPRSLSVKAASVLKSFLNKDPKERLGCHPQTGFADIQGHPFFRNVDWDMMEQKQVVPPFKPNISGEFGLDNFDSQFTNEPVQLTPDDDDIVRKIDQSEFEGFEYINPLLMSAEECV

[7] = target: Serine/threonine-protein kinase PLK2 (Homo sapiens) (UniProt Q9NYY3)
[8] = target: T3, Protein kinase C epsilon type (Homo sapiens) (UniProt Q02156)
T3 sequence (whole entry): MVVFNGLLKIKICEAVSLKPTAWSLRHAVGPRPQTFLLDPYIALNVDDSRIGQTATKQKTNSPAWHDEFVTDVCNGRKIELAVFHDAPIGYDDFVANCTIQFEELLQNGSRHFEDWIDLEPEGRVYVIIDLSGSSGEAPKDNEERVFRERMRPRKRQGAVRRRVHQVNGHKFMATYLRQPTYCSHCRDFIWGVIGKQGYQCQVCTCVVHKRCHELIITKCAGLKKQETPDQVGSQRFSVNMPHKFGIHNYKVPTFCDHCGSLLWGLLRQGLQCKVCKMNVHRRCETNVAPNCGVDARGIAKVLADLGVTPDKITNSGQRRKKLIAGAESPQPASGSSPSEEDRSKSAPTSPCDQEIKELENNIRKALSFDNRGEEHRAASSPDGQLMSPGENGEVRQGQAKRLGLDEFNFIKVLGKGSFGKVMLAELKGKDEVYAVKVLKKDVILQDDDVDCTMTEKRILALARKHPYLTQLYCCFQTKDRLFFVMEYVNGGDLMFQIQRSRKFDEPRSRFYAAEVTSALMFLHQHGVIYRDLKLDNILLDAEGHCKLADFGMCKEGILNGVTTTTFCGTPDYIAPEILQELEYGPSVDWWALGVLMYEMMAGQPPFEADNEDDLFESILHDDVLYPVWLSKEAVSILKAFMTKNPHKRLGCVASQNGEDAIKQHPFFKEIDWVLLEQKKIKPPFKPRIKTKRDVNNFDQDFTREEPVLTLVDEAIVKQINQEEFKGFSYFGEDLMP

[9] = target: Misshapen-like kinase 1 (Homo sapiens) (UniProt Q8N4C8)
[10] = target: Serine/threonine-protein kinase WNK1 (Homo sapiens) (UniProt Q9H4A3)
Sequence of Serine/threonine-protein kinase WNK1 (Homo sapiens) (Q9H4A3 whole entry, looked up): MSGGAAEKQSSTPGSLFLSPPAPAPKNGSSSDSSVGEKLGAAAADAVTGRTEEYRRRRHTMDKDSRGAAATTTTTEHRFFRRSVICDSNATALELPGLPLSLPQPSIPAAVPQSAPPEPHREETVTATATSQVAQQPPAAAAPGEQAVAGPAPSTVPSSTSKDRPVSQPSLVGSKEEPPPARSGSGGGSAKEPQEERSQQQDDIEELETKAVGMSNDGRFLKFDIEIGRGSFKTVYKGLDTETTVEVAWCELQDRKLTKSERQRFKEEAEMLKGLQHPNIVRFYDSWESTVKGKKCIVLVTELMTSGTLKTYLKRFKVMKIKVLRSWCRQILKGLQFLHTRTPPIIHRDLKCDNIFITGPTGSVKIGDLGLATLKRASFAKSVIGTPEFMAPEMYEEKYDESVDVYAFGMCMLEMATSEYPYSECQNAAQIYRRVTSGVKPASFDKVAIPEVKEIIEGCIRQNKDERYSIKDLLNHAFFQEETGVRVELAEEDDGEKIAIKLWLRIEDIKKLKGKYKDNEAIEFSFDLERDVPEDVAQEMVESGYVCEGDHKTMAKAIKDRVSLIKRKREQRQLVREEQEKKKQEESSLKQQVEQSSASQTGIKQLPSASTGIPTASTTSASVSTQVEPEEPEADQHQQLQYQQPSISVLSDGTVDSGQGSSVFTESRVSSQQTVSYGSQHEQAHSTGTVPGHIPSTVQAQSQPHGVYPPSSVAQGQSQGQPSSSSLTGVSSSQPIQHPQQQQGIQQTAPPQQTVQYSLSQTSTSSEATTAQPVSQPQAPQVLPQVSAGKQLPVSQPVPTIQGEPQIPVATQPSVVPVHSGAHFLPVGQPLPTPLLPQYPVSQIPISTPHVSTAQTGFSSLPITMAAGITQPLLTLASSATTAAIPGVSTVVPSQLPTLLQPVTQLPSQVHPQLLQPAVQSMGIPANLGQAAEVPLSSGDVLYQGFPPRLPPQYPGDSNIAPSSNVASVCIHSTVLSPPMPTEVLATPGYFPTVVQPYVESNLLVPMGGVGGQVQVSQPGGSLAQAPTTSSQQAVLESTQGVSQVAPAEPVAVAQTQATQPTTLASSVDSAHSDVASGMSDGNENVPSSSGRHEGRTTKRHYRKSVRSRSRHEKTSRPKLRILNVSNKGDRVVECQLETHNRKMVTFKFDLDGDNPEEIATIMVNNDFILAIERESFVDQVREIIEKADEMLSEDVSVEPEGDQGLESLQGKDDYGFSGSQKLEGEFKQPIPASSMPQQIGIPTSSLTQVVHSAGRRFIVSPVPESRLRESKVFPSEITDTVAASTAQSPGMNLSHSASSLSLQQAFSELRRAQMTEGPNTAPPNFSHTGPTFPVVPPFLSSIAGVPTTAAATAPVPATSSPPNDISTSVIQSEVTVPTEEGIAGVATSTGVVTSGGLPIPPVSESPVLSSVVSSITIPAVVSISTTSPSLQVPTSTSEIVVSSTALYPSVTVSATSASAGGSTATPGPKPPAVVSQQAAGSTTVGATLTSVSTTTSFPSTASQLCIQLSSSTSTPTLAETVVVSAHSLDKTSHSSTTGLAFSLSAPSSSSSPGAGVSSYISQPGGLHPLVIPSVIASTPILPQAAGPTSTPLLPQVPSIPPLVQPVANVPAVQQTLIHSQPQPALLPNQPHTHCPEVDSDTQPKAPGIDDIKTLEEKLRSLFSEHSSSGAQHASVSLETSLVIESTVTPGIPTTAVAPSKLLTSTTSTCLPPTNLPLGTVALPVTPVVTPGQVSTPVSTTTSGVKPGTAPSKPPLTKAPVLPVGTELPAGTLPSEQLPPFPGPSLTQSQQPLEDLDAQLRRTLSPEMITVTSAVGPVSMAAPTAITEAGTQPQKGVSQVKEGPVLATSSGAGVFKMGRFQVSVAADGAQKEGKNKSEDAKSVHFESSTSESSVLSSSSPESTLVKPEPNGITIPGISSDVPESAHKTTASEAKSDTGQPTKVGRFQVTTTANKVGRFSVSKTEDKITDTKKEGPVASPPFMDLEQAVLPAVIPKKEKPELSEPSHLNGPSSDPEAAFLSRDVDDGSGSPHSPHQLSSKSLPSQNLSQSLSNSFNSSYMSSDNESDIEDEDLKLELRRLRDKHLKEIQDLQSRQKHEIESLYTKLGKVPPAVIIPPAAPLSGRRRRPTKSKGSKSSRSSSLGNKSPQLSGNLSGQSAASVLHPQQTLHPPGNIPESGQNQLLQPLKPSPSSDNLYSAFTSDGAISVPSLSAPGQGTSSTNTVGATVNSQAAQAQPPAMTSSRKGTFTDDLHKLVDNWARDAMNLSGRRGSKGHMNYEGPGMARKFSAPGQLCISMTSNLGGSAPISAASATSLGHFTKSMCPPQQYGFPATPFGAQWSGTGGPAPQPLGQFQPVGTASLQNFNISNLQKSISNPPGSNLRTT

[11] = target: Tyrosine-protein kinase JAK1 (Homo sapiens) (UniProt P23458)
[12] = target: Dual specificity mitogen-activated protein kinase kinase 2 (Homo sapiens) (UniProt P36507)
[13] = target: Serine/threonine-protein kinase TNNI3K (Homo sapiens) (UniProt Q59H18)
[14] = target: Dual specificity protein kinase CLK2 (Homo sapiens) (UniProt P49760)
[15] = target: NUAK family SNF1-like kinase 2 (Homo sapiens) (UniProt Q9H093)
Sequence of NUAK family SNF1-like kinase 2 (Homo sapiens) (Q9H093 whole entry): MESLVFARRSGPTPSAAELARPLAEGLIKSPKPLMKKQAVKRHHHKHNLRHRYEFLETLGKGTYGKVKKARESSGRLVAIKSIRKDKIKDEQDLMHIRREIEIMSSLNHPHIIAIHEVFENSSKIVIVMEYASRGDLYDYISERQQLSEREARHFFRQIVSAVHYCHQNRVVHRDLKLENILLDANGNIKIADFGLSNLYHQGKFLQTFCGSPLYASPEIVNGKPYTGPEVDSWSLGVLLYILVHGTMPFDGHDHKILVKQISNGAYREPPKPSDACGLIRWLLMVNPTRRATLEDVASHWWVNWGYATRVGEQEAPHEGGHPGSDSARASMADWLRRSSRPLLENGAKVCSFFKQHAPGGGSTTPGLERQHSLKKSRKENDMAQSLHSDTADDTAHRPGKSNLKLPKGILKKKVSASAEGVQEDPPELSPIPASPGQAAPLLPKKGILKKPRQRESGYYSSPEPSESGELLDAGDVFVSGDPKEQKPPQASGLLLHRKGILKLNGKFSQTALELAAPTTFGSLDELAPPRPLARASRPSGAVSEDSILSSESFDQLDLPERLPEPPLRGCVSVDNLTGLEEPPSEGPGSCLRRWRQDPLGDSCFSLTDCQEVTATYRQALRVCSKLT

[16] = target: STE20-like serine/threonine-protein kinase (Homo sapiens) (UniProt Q9H2G2)
[17] = target: 5'-AMP-activated protein kinase catalytic subunit alpha-2 (Homo sapiens) (UniProt P54646)
[18] = target: Serine/threonine-protein kinase RIO1 (Homo sapiens) (UniProt Q9BRS2)
Sequence of Serine/threonine-protein kinase RIO1 (Homo sapiens) (Q9BRS2 whole entry, canonical isoform): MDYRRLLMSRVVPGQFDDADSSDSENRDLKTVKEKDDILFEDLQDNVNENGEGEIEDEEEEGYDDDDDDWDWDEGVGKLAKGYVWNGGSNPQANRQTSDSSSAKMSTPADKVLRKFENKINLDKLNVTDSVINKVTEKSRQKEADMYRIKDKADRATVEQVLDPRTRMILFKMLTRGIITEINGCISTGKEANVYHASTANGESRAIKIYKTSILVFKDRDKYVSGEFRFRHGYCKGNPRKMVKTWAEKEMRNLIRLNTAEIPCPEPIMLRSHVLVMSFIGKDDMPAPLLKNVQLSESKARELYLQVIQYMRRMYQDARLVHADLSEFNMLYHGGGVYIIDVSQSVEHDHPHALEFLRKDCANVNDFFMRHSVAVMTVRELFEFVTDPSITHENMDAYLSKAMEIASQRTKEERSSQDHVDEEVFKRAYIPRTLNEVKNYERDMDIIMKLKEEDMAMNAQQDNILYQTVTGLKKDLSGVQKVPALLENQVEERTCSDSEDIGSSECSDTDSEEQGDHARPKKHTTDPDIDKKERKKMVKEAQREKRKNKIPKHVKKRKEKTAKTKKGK

[19] = tested on: Phosphatidylinositol 4,5-bisphosphate 3-kinase catalytic subunit alpha isoform (Homo sapiens), P42336 [M1043I]
[20] = target: Cyclin-dependent kinase 7 (Homo sapiens) (UniProt P50613)
[21] = Compound concentration 1000.0 nM
[22] = Compound concentration 100.0 nM

C[C@@H]1CN(c2cc(-c3nn(C)c4ccc(OC5(C)CC5)cc34)ncn2)C[C@H](C)O1 [MLi-2-NC]
inactive: inhibition [1] 10.6% | residual activity [2, 21] 74% | residual activity [3, 21] 100% | residual activity [4, 21] 100% | residual activity [5, 21] 100% | residual activity [6, 21] 100% | residual activity [7, 21] 68% | residual activity [8, 21] 100% | residual activity [9, 21] 66% | residual activity [10, 21] 82% | residual activity [11, 21] 84% | residual activity [12, 21] 73% | residual activity [13, 21] 71% | residual activity [14, 21] 81% | residual activity [15, 21] 68% | residual activity [16, 21] 100% | residual activity [17, 21] 100% | residual activity [18, 21] 89% | residual activity [19, 21] 96% | residual activity [20, 21] 100%

C[C@@H]1CN(c2cc(-c3n[nH]c4ccc(OC5(C)CC5)cc34)ncn2)C[C@H](C)O1 [MLi-2]
inactive: inhibition [1] -4.79% | residual activity [2, 22] 80% | residual activity [3, 22] 51% | residual activity [4, 22] 80% | residual activity [5, 22] 97% | residual activity [6, 22] 80% | residual activity [7, 22] 76% | residual activity [8, 22] 95% | residual activity [9, 22] 84% | residual activity [10, 22] 89% | residual activity [11, 22] 79% | residual activity [12, 22] 85% | residual activity [13, 22] 78% | residual activity [14, 22] 85% | residual activity [15, 22] 79% | residual activity [16, 22] 98% | residual activity [17, 22] 100% | residual activity [18, 22] 100% | residual activity [19, 22] 82% | residual activity [20, 22] 56%
